How the values were obtained:
p210^bcr-abl kinase = assay: Immunoprecipitation kinase assay of p210bcr-abl (autophosphorylation), ODN added to kinase reaction; format: biochemical, human; conditions: ODN at 1 μM added to the immunoprecipitated enzyme
Description: The p210^bcr-abl kinase, src kinase and cdc-2 kinase were immunoprecipitated from K562 cells. The p145^abl kinase was immunoprecipitated from PC3M cells, PDGF receptor kinase from 3T3 cells, and EGF receptor kinase from A431 cells. MAP kinase was utilized as a pure protein and lck kinase was immunoprecipitated from peripheral blood lymphocytes of a normal volunteer.
(§1) Cells were washed in phosphate buffered saline (PBS) and 0.5-5×10^6 cells were solubilized in 1 ml of the specified cell lysis buffers. Unless otherwise stated, all cell lysis buffers contained the following protease inhibitors: 20 μg/ml leupeptin, 1 μg/ml aprotinin, and 1 mM phenylmethylsulfonylfluroide. For p210^bcr-abl and […] immunoprecipitation, cells were lysed with ABL lysis buffer (25 mM imidazole, pH 7.2, 0.5% NP40, 50 mM NaCl, 1 mM Na3 VO4) and lysates were clarified at 14,000 g. 4° C. for 30 minutes. Cell lysis for all other proteins was performed according to the references describing the various immunoprecipitation kinase assays.
(§2) Immunoprecipitation kinase assays of p210^bcr-abl p145^abl were performed as described, with modifications (15). Briefly, for p210^bcr-abl, 1 μg of anti-bcr antibody (clone 7C6, Oncogene Science, Uniondale, N.Y.) was added to lysates prepared from 0.5-1×10^6 K562 cells. For p145^abl, 1 μg of anti-c-abl antibody (clone 24-21), which binds to the C-terminal domain of p145^abl, was added to lysates prepared from 5×10^6 PC3M cells. After incubating 1 hour at 4° C., complexes were precipitated by incubating with protein A-Sepharose coated with rabbit anti-mouse immunoglobulin (Cappel Research Products, Durham, N.C.) for 30 minutes. The complexes were then washed as follows: ABL lysis buffer×2, PBS×1, and ABL assay buffer×1 (24 mM imidazole, pH 7.2, 1 mg/ml bovine serum albumin, and 10 mM MnCl). For p145^abl assays ABL assay buffer contained 20 mM MnCl. To access the activity of p210^bcr-abl on substrate phosphorylation, acid inactivated enolase (Sigma Chemical Co., St. Louis, Mo.) was added as described (15).
(§3) ODNs were added to kinase reaction buffers not more than 5 minutes prior to the addition of ATP. Reactions were initiated by the addition of [γ^-32 P] ATP (3000 Ci/mmole; Amersham Corp., Arlington Heights, Ill.) and quenched by the addition of 5× gel loading buffer and heating to 95° C. Kinase reactions were run for 1-10 minutes at room temperature, except for EGFR, p145^abl, and MAP kinase, which were run at 30° C. The products were then electrophoresed on SDS-polyacrylamide gels: 7% for p210^bcr-abl, EGFR, and PDGFR, 8% for p145^abl, 10% for src, lck, and cdc-2 kinase, and 12% for MAP kinase. Gels were dried and reaction products were visualized by direct autoradiography at -70° C. with Kodak X-OMAT AR film. To determine the inhibitory concentration 50, i.e., the concentration required to inhibit enzyme activity by 50% (IC50) and Ki values, gel slices containing the band of interest were excised and analyzed by Cerenkov counting.

[1] = test system: p210^bcr-abl kinase in K562 cells; assay: Immunoprecipitation kinase assay of p210bcr-abl from ODN treated K562 cells; format: cell-based, human; conditions: K562 cells treated with T-21 overnight, washed, calculated from FIG. 9A, read-out: IC50 of apparent reduction of p210^bcr-abl kinase activity
Description: as §2, §3
The effects of ODN1 on a cellular system were assessed. […] After 3 days, cells were washed and p210^bcr-abl kinase activity was measured. […] Neither cellular p210^bcr-abl protein content nor cell growth was affected by ODN treatment (data not shown).

p210^bcr-abl = assay: Inhibition of p210bcr-abl immunoprecipitation by BCR directed antibody clone 7C6; format: binding, human; conditions: 10 μM ODN added to K562 cell lysate, antibody clone 7C6, Western for phosphotyrosine
Description: FIG. 9C. Inhibition of p210^bcr-abl immunoprecipitation by T-21. […] T-21 was added to the lysate from 1×10^6 K562 cells (lane 2) and p210^bcr-abl immunoprecipitated with the BCR directed antibody, clone 7C6; no ODN was added to the lysate immunoprecipitated in lane 1. After extensive washing, the immunoprecipitates were separated on a 7% SDS polyacrylamide gel, transferred to nitrocellulose, and probed with an anti-phosphotyrosine antibody. Data are representative of at least two separate experiments.
In experiments designed to test the specificity of BCR-AS, an ODN composed solely of thymidylic acid residues (T-21) i.e., 5' […] 3' (SEQ ID NO.: 12) was capable of interfering with p210^bcr-abl immunoprecipitation. […] From the data in FIG. 9A, one can calculate an IC50 of less than 1 μM. […] This apparent discrepancy appears to be due to the ability of T-21 to inhibit precipitation of p210^bcr-abl by the BCR-directed antibody, clone 7C6. […] Inhibition of p210^bcr-abl immunoprecipitation was not seen with the other ODNs used in this study (data now shown).

[2] = target: p145 ABL tyrosine kinase (c-Abl) (UniProt P00519 P00519:1-1130); assay: inhibition; 20 mM Mn, 30 C; conditions: tags: immunoprecipitated from PC3M cells with anti-c-abl clone 24-21
Description: as §1, with “0.5–5×10^6” for “0.5-5×10^6”, “µg/ml” for “μg/ml”, “Na_3VO_4)” for “Na3 VO4)”
Immunoprecipitation kinase assays of p210^bcr-abl p145^abl were performed as described, with modifications (15). Briefly, for p210^bcr-abl, 1 µg of anti-bcr antibody (clone 7C6, Oncogene Science, Uniondale, N.Y.) was added to lysates prepared from 0.5–1×10^6 K562 cells. For p145^abl, 1 µg of anti-c-abl antibody (clone 24-21), which binds to the C-terminal domain of p145^abl, was added to lysates prepared from 5×10^6 PC3M cells. After incubating 1 hour at 4° C., complexes were precipitated by incubating with protein A-Sepharose coated with rabbit anti-mouse immunoglobulin (Cappel Research Products, Durham, N.C.) for 30 minutes. […]

Sequence of p145 ABL tyrosine kinase (c-Abl) (P00519 whole entry, one chain of several): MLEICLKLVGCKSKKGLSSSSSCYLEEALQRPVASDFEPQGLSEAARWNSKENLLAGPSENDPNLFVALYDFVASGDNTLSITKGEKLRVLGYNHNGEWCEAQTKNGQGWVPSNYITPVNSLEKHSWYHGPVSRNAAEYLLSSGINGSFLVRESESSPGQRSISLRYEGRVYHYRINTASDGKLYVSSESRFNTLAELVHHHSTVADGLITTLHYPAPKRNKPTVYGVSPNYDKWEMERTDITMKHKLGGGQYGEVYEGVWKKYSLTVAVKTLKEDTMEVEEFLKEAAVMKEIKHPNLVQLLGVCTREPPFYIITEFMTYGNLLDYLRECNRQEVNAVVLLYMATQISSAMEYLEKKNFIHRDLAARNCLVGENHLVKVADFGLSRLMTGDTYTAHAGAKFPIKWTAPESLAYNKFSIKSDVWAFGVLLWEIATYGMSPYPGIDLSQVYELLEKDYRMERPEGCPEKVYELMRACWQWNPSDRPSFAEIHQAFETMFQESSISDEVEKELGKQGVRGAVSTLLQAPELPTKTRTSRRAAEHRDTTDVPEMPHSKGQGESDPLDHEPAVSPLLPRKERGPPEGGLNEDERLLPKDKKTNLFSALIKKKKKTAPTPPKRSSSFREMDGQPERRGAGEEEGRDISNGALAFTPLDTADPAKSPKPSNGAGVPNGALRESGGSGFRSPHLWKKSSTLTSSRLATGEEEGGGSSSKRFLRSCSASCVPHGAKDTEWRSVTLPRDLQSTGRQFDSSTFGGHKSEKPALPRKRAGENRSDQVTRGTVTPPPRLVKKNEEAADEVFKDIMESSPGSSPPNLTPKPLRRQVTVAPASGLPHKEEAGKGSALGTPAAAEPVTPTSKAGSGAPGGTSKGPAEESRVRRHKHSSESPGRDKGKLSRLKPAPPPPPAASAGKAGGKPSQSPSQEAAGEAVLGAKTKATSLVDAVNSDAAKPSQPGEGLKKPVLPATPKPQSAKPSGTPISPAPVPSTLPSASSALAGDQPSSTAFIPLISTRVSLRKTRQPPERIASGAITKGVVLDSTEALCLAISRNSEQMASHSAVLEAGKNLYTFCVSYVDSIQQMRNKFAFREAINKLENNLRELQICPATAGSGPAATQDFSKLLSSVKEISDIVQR

Row | Molecule | inhibition of p210^bcr-abl kinase activity in vitro (in words) (p210^bcr-abl kinase) | IC50 [1] | inhibition of p210^bcr-abl immunoprecipitation (p210^bcr-abl) | IC50 [2]
1 | 5' TTTTTTTTTTTTTTTTTTTTT 3' (chemistry not given here) [T-21, a 21mer composed solely of thymidylic acid residues] | only moderate inhibition | < 1000 nM | nearly total inhibition | –
2 | GTCCACCATGGCGCGGCCGGC (ssDNA, PS, two linkages at each of 5' and 3' ends, rest phosphodiester) [ODN1 (BCR-AS), phosphorothioate capped] | – | – | – | 620 nM
